Test in all cases: In vitro antibacterial activity (MIC), agar dilution
Format in all cases: cell-based
On the technique in general: In agar dilution, organisms are placed on agar that contains the substance at set levels.

For test [1], the system named is Streptococcus faecium MD 8b. The note with it: Enterococcus faecium, MD8B, 2-fold agar dilution, Muller-Hinton agar, 18 hours at 37° C., read-out: minimum inhibitory concentration (MIC). As to the method: (§1) 10^7 cfu/ml of bacteria were inoculated and cultured for 18 hours at 37° C. and then the antibacterial activities were measured. For the methicillin resistant strains the activities were measured after 48 hours of cultivation at 30° C. Hoechst Standard strains were used for the testings.

Test [2] concerns Esherichia coli 078. As to conditions: 2-fold agar dilution, Muller-Hinton agar, 18 hours at 37° C., read-out: minimum inhibitory concentration (MIC). As to the method:
as §1

Test [3] has as its system Streptococcus pyogens 77A. The note with it: 2-fold agar dilution, Muller-Hinton agar, 18 hours at 37° C., read-out: minimum inhibitory concentration (MIC). On the procedure: as §1
Test [4] concerns Enterobacter clocae 1321E. As to conditions: 2-fold agar dilution, Muller-Hinton agar, 18 hours at 37° C., read-out: minimum inhibitory concentration (MIC). On the procedure: as §1
The test system of test [5] is Esherichia coli 1507E. As to conditions: 2-fold agar dilution, Muller-Hinton agar, 18 hours at 37° C., read-out: minimum inhibitory concentration (MIC). On the procedure: as §1
The subject of test [6] is Staphylococcus aureus 285. As to conditions: 2-fold agar dilution, Muller-Hinton agar, 18 hours at 37° C., read-out: minimum inhibitory concentration (MIC). On the procedure:
as §1

For test [7], the system named is Pseudomonas aeruginosa 9027. As to conditions: 2-fold agar dilution, Muller-Hinton agar, 18 hours at 37° C., read-out: minimum inhibitory concentration (MIC). As to the method:
as §1

The test system of test [8] is Salmonella typhimurium. The note with it: Salmonella enterica, 2-fold agar dilution, Muller-Hinton agar, 18 hours at 37° C., read-out: minimum inhibitory concentration (MIC). On the procedure: as §1
In test [9] the test system is Esherichia coli DC0. The note with it: 2-fold agar dilution, Muller-Hinton agar, 18 hours at 37° C., read-out: minimum inhibitory concentration (MIC). On the procedure: as §1
Test [10] has as its system Streptococcus pyogens 308A. As to conditions: 2-fold agar dilution, Muller-Hinton agar, 18 hours at 37° C., read-out: minimum inhibitory concentration (MIC). As to the method: as §1
Test [11] deals with Klebsiella oxytoca 1082E. The note with it: 2-fold agar dilution, Muller-Hinton agar, 18 hours at 37° C., read-out: minimum inhibitory concentration (MIC). On the procedure:
as §1

Test [12] deals with Enterobacter clocae P99. As to conditions: 2-fold agar dilution, Muller-Hinton agar, 18 hours at 37° C., read-out: minimum inhibitory concentration (MIC). On the procedure: as §1
The subject of test [13] is Pseudomonas aeruginosa 1771M. As to conditions: Pseudomonas aeruginosa, 1771M, 18 h, read-out: minimum inhibitory concentration (MIC). On the procedure: as §1
Test [14] relates to Klebsiella aerogenes 1522E. The note with it: 2-fold agar dilution, Muller-Hinton agar, 18 hours at 37° C., read-out: minimum inhibitory concentration (MIC). On the procedure:
as §1

Test [15] concerns Pseudomonas aeruginosa 1592E. As to conditions: 2-fold agar dilution, Muller-Hinton agar, 18 hours at 37° C., read-out: minimum inhibitory concentration (MIC). On the procedure:
as §1

Test [16] deals with Staphylococcus aureus SG511. The note with it: 2-fold agar dilution, Muller-Hinton agar, 18 hours at 37° C., read-out: minimum inhibitory concentration (MIC). On the procedure:
as §1

Test [17] relates to Staphylococcus aureus 503. The note with it: 2-fold agar dilution, Muller-Hinton agar, 18 hours at 37° C., read-out: minimum inhibitory concentration (MIC). On the procedure: as §1
The subject of test [18] is Pseudomonas aeruginosa 1771. As to conditions: 2-fold agar dilution, Muller-Hinton agar, 18 hours at 37° C., read-out: minimum inhibitory concentration (MIC). On the procedure: as §1
The subject of test [19] is Esherichia coli TEM. As to conditions: 2-fold agar dilution, Muller-Hinton agar, 18 hours at 37° C., read-out: minimum inhibitory concentration (MIC). On the procedure:
as §1

≈ marks a conversion by molar mass, not a printed value.

In the case of `CON=C1CN(c2c(F)cc3c(=O)c(C(=O)O)cn(C4CC4)c3c2Cl)CC12CNC2` [Example 4, 1-Cyclopropyl-6-fluoro-8-chloro-7-[8-(methoxyimino)-2,6-diazaspiro[3,4]oct-6-yl]-4-oxo-1,4-dihydro-3-quinolinecarboxylic acid], the MIC amounted to 0.098 µg/mL (≈ 0.225 µM) in [1]; 0.025 µg/mL (≈ 0.0575 µM) in test [2]; 0.013 µg/mL (≈ 0.0299 µM) in test [3]; 0.025 µg/mL (≈ 0.0575 µM) in test [4]; 0.049 µg/mL (≈ 0.113 µM) in test [5]; 0.049 µg/mL (≈ 0.113 µM) in test [6]. Further, the MIC was 0.781 µg/mL (≈ 1.8 µM) in test [7]; 0.025 µg/mL (≈ 0.0575 µM) in [8]; 0.391 µg/mL (≈ 0.899 µM) in [9]; 0.195 µg/mL (≈ 0.448 µM) in [10]; 0.004 µg/mL (≈ 0.0092 µM) in [11]; 0.049 µg/mL (≈ 0.113 µM) in test [12]. Further, the MIC in test [13] is 0.391 µg/mL (≈ 0.899 µM); in test [14], 0.098 µg/mL (≈ 0.225 µM); in test [15], 0.781 µg/mL (≈ 1.8 µM); in test [16], 0.013 µg/mL (≈ 0.0299 µM); in [17], 0.025 µg/mL (≈ 0.0575 µM); in [18], 0.781 µg/mL (≈ 1.8 µM). Further, the MIC in [19] was 0.049 µg/mL (≈ 0.113 µM).
`CON=C1CN(c2nc3c(cc2F)c(=O)c(C(=O)O)cn3-c2ccc(F)cc2F)CC12CNC2.CS(=O)(=O)O` [Example 7, 1-(2,4-Difluorophenyl)-6-fluoro-7-[8-(methoxyimino)-2,6-diazaspiro[3,4]oct-6-yl]-4-oxo-1,4-dihydro-1,8-naphthyridine-3-carboxylic acid methane sulfonate]: the MIC in [1] stood at 0.098 µg/mL; in test [2], 0.049 µg/mL; in test [3] it was 0.013 µg/mL; in test [4] it was 0.049 µg/mL; in [5], 0.195 µg/mL; in test [6], 0.049 µg/mL. The MIC in test [7] worked out at 1.56 µg/mL; in test [8], 0.049 µg/mL; in test [9], 0.781 µg/mL; in [10] it was 0.195 µg/mL; in [11], 0.013 µg/mL; in [12] it was 0.098 µg/mL. For the same compound, the MIC in test [13] worked out at 0.781 µg/mL; in [14], 0.195 µg/mL; in test [15] it was 1.56 µg/mL; in [16], 0.013 µg/mL; in test [17], 0.025 µg/mL; in test [18], 1.56 µg/mL. For the same compound, in [19], the MIC was found to be 0.098 µg/mL.
In the case of `CON=C1CN(c2nc3c(cc2F)c(=O)c(C(=O)O)cn3C2CC2)CC12CN(C)C2` [Example 10, 1-Cyclopropyl-6-fluoro-7-[8-(methoxyimino)-2-methyl-2,6-diazaspiro[3,4]oct-6-yl]-4-oxo-1,4-dihydro-1,8-naphthyridine-3-carboxylic acid], the MIC was 0.098 µg/mL (≈ 0.236 µM) in test [1]; 0.013 µg/mL (≈ 0.0313 µM) in test [2]; 0.013 µg/mL (≈ 0.0313 µM) in test [3]; 0.025 µg/mL (≈ 0.0602 µM) in test [4]; 0.049 µg/mL (≈ 0.118 µM) in test [5]; 0.049 µg/mL (≈ 0.118 µM) in test [6]. In addition, the MIC in test [7] was determined as 0.781 µg/mL (≈ 1.88 µM); in [8] it was 0.049 µg/mL (≈ 0.118 µM); in test [9], 0.391 µg/mL (≈ 0.941 µM); in test [10], 0.098 µg/mL (≈ 0.236 µM); in test [11] it was 0.007 µg/mL (≈ 0.0169 µM); in [12], 0.049 µg/mL (≈ 0.118 µM). Moreover, the MIC was determined as 0.781 µg/mL (≈ 1.88 µM) in test [13]; 0.098 µg/mL (≈ 0.236 µM) in test [14]; 0.781 µg/mL (≈ 1.88 µM) in test [15]; 0.013 µg/mL (≈ 0.0313 µM) in test [16]; 0.025 µg/mL (≈ 0.0602 µM) in [17]; 0.781 µg/mL (≈ 1.88 µM) in [18]. For the same compound, the MIC in [19] was found to be 0.049 µg/mL (≈ 0.118 µM).
Consider `CCON=C1CN(c2nc3c(cc2F)c(=O)c(C(=O)O)cn3C2CC2)CC12CNC2.CS(=O)(=O)O` [Example 8, 1-Cyclopropyl-6-fluoro-7-[8-(ethoxyimino)-2,6-diazaspiro[3,4]oct-6-yl]-4-oxo-1,4-dihydro-1,8-naphthyridine-3-carboxylic acid methanesulfonate], for which the MIC in test [1] came out at 0.098 µg/mL; in test [2], 0.013 µg/mL; in test [3], 0.007 µg/mL; in test [4] it was 0.025 µg/mL; in test [5] it was 0.049 µg/mL; in [6] it was 0.025 µg/mL. In addition, the MIC was 1.56 µg/mL in [7]; 0.013 µg/mL in test [8]; 0.391 µg/mL in test [9]; 0.098 µg/mL in [10]; 0.004 µg/mL in [11]; 0.025 µg/mL in test [12]. Besides, the MIC was 0.781 µg/mL in test [13]; 0.098 µg/mL in test [14]; 0.781 µg/mL in test [15]; 0.007 µg/mL in test [16]; 0.013 µg/mL in test [17]; 0.781 µg/mL in test [18]. For the same compound, the MIC in test [19] stood at 0.025 µg/mL.

The values are drawn from patent publication US6552196B2, “Quinolone carboxylic acid derivatives” (Dong Wha Pharmaceutical Industrial Co., Ltd., priority 1997, dated 2003).
